Assays:
[1] = test system: HeLa cells; experiment: xCelligence real-time cell analysis (RTCA) cytotoxicity assay, HeLa; assay type: cell-based, human
Experimental: (§1) The A549 and HeLa cell lines were cultured directly in DMEM (Dulbecco's Modified Eagle Medium), and then supplemented with 10% fetal bovine serum (FBS) and 1% streptomycin/penicillin. Then, the cancer cell samples were kept in a humidified incubator at 37° C. with 5% CO2.
(§2) The cytotoxicity of complexes was measured using xCelligence RTCA DP system (ACEA Biosciences, San Diego, Calif., USA). Briefly, the instrument was positioned in a humidified incubator at 37° C. with 5% CO2. The cytotoxicity experiments were conducted using modified 16-well plate (E-plate) with gold-microelectrodes attached at the base of the wells for the impedance-based attachment detection, cell distribution, and proliferation. A 50 μL of cell-free growth DMEM with 10% FBS was added to the wells. Then, the system was connected to measure the background impedance for each well for 30 min. A549 and HeLa cells were harvested using 0.05% Trypsin-EDTA (ethylenediaminetetraacetic acid), and then counted using LUNA automated cell counter (Logos Biosystem, Seoul, South Korea). 50 μL of the cell suspension was then added directly to each well containing 50 μL of cell-free growth DMEM with 10% FBS—Final to reach cell density of 5×10^3. The plates were left at room temperature for about 30 minutes and then inserted to xCelligence RTCA DP device. The xCelligence RTCA system software v.2.0 automatically monitored the impedance value of individual well. These values are expressed as CI (Cell Index) every 15 minutes. […] Then, cells were real time-monitored for 72 hours. All tested compounds were dissolved in DMSO, while cisplatin in normal saline solution. The final concentration of DMSO was less than 0.1% in each well. For negative control, 0.1% DMSO solution was used. Then IC50 values for all compounds at 24 hours and 72 hours were calculated using RTCA software v.2.0.
(§3) For all impedance profiles, the sigmoidal dose-response curves (FIGS. 2A-D) were obtained, and IC50 values were calculated (see Table 4). The calculations were based upon the CI, which is a relative and dimensionless value representing the impedance change divided by the background value, and thus reflects the overall number of cells and the quality of their attachment [D. Kho, C. MacDonald, R. Johnson, C. P. Unsworth, S. J. O'Carroll, E. du Mez, C. E. Angel, E. S. Graham. […] Biosensors 5 (2015) 199-222, incorporated herein by reference in its entirety]. The CI can change as a function of time, resulting in time-dependent and dose-dependent impedance profiles during an experiment [D. Kho, C. MacDonald, R. Johnson, C. P. Unsworth, S. J. O'Carroll, E. du Mez, C. E. Angel, E. S. Graham. […] Biosensors 5 (2015) 199-222, incorporated herein by reference in its entirety].

[2] = test system: A549 cells; experiment: xCelligence real-time cell analysis (RTCA) cytotoxicity assay, A549; assay type: cell-based, human
Experimental: as §1, §2, §3

[3] = test system: mice; experiment: Acute kidney toxicity study
From the text: The mice were separated into three groups ((I), (II), and (III)) with four animals per each cage. Group (I) was served as normal control group, which received only vehicle (0.1 volume % DMSO). […] Six hours prior to the experiment, no food and water were given. […] On the day three, the animals were sacrificed by the overdose of xylazine and ketamine anesthesia. Blood samples were collected for Blood Urea Nitrogen (BUN) and serum creatinine (CRE2) measurements. All mice were allowed one week to acclimatize prior to the experiments (five animals per cage), under standard environmental conditions (12 h light-dark cycle). The animal studies were performed according to the king Saud University ethical committee.
Kidney biochemical markers, BUN and CRE2, were used for nephrotoxicity study.

[4] = test system: HeLa cells; experiment: Lactate dehydrogenase (LDH) release assay, HeLa; assay type: cell-based, human; conditions: 72 hours
Experimental: (§4) The release of lactate dehydrogenase (LDH) of A549 and HeLa cells in response to the cytotoxic effect of complexes 1 and 2 was measured using the LDH cytotoxic kit protocol (Dojindo, japan). The A549 and HeLa cells were plated into 96-well plate at 5×10^5 density for overnight. The cells were treated with complexes (1 and 2) at concentrations of IC25 (0.9 μM), IC50 (1.8 […]), and IC100 (3.6 μM) in triplicate for about 72 hours. In the day of reading, 10 μL of the Lysis Buffer was added to each well of the high control. The plate was incubated at 37° C. in CO2 incubator for 30 minutes. Then, 100 μL of the Working Solution was added to each well and incubated at room temperature for 30 minutes. Then, 50 μL of the Stop Solution was added to each well before measuring the absorbance at 490 nm using Mithras 943 micro-plate reader (Berthold Tech, Wildbad, Germany). The high control (DMSO+Cells suspension+lysis buffer) and low control (DMSO+cell suspension) were used to determine the percentage of fold changes in LDH according to the following equation (I). % in LDH changes=(Low control−Test)/(Low control−High control)×100 (I)
(§5) The release of lactate dehydrogenase (LDH) directly into the culture medium is an indication of loss of membrane integrity of a cell due to necrosis or apoptosis. Therefore, the LDH activity in the medium can be used as an indicator for cell membrane integrity, and thus for measuring cytotoxicity. […] The cytotoxic effect of complexes 1 and 2 was evaluated by the release of lactate dehydrogenase (LDH) on treated cells (A549 and HeLa). The cells were treated with the complexes at concentrations of 0.9 μM, 1.8 μM, and 3.6 μM, respectively, for 72 hours.

[5] = test system: HeLa cells; experiment: Wound healing assay (cell migration); assay type: cell-based, human; conditions: for cells migrated, % of the cell-free area (scratch closure): DMSO control approximately 73%
Experimental: The Culture-Insert 2 Well (ibidi Gmbh, Germany) was placed into micro-plate 24. 70 μL of 5×10^5 of HeLa cells was seeded into the culture-insert. The seeded cells were incubated for 24 hours under a specific condition (37° C., 5% CO2) to form monolayer cells. After 24 hours of the incubation, the culture-inserts were removed and the cells were gently washed with PBS to remove cell debris and detached cells. The cells were then treated with the cell culture mediums containing complex 1 at specific concentrations (1, 3, 10, 30 μM) and containing 0.1% DMSO as control. All assays were conducted in duplicates. In order to analyze the migration capacity, images of the cells were taken at 0 hours, 6 hours, and 12 hours using Optika microscope, Italy. The gap closure was determined using a web-based quantitative image solution (http://www.metavilabs.com/metavi2/index.html)
Cell migration is essential in the development and maintenance of multicellular organism. It plays a central role in tissue formation during embryonic development, organ formation, immune responses, and most importantly (as in this experiment) in wound healing. Wound healing assay is a standard in vitro technique to determine collective cell migration in two dimensions. In this assay, an insert is used to create a cell-free gap in confluent monolayer cells. The wound healing assay is initiated by removing the insert. The cell-free gap is then exposed to the cell culture medium to induce the cells to migrate into the gap until new cell-to-cell contacts are established.
The wound healing images were recorded at three different time intervals using microscope to assess the directional collective migration of the cells. The rate of wound healing was determined by measuring the change in the gap size of the cell-free area after treatment with various concentrations of complex 1 recorded over specific time-intervals (e.g., 0 hour, 6 hours, and 12 hours). The gap was measured for each frame in the wound healing and plotted as a function of time to determine the cell migration rate. The effect of varying concentration of complex 1 (1, […], 10, 30 μM) and 0.1% of DMSO (control cells) against HeLa cell migration rate was studied. […] Meanwhile, the cells treated with four different concentrations of complex 1 (1, 3, 10, 30 μM) migrated approximately 57%, 54%, 49%, and 28%, respectively. […] Further molecular studies are required to understand the mechanism behind the inhibition of cell migration.

[6] = test system: A549 cells; experiment: Lactate dehydrogenase (LDH) release assay, A549; assay type: cell-based, human; conditions: 72 hours
Experimental: as §4, §5

[7] = equimolar single doses of 25 mg/kg, 72 hours

| Compound | IC50 ([1]; 24 hours) | IC50 ([1]; 72 hours) | IC50 ([2]; A549, 24 hours) | IC50 ([2]; A549, 72 hours) | Percent (%) release of LDH ([4]; 0.9 μM) | Percent (%) release of LDH ([4]; 1.8 μM) | Percent (%) release of LDH ([4]; 3.6 μM) | Percent (%) release of LDH ([6]; A549, 0.9 μM) | Percent (%) release of LDH ([6]; A549, 1.8 μM) | Percent (%) release of LDH ([6]; A549, 3.6 μM) | also measured |
| --- | --- | --- | --- | --- | --- | --- | --- | --- | --- | --- | --- |
| N.N.[Cl][Pt][Cl] [Cisplatin, reference compound] | > 30 µM | > 30 µM | > 30 µM | > 30 µM |  |  |  |  |  |  |  |
| C1=CC2C3C=CC(C3)C2C1.CN(C)C(=S)[S][Pt+].F[P-](F)(F)(F)(F)F (centres unmarked) [Complex 1] | 1.72 µM | 1.87 µM | 2.92 µM | 1.74 µM | 60.16 ± 0.02% | 73.07 ± 0.03% | 95.57 ± 0.02% | 31.93 ± 0.01% | 43.33 ± 0.02% | 47.00 ± 0.01% | Blood Urea Nitrogen (BUN) level in Plasma ([3]; 72 h after single dose, 25 mg/kg cisplatin or equimolar complex 1, CTR 6.7 ± 0.1): 6.06 ± 0.08; Creatinine (CRE2) level in Plasma ([3]; 72 h after single dose, 25 mg/kg cisplatin or equimolar complex 1, CTR 17.4 ± 0.58): 15.8 ± 0.45; BUN and CRE2 levels in response to the complex (in words) ([3]; 72 hours): control and normal; physical or abnormal changes [3, 7]: No physical or abnormal changes; survival of the treatment period [3, 7]: all animals survived; acute kidney toxicity compared to cisplatin ([3]; nephrotoxicity tests): less toxic compared to cisplatin; cells migrated, % of the cell-free area (scratch closure) ([5]; 1 μM): approximately 57%; cells migrated, % of the cell-free area (scratch closure) ([5]; 3 μM): ~54%; cells migrated, % of the cell-free area (scratch closure) ([5]; 10 μM): ~49%; cells migrated, % of the cell-free area (scratch closure) ([5]; 30 μM): ~28%; effect on cell migration rate ([5]; 1-30 μM, 0-12 h): slowed down the cell migration rate in a concentration-dependent manner |
| C1=CC2C3C=CC(C3)C2C1.CCN(CC)C(=S)[S][Pt+].F[P-](F)(F)(F)(F)F (centres unmarked) [Complex 2] | 6.1 µM | 3.52 µM | 7.61 µM | 3.37 µM | 45.52 ± 0.001% | 68.19 ± 0.04% | 94.13 ± 0.05% | 32.18 ± 0.004% | 41.05 ± 0.01% | 44.85 ± 0.01% |  |
| C1=CC2C3C=CC(C3)C2C1.F[P-](F)(F)(F)(F)F.S=C([S][Pt+])N(Cc1ccccc1)Cc1ccccc1 [Complex 3] | 3.18 µM | 11.4 µM | 3.31 µM | 7.83 µM |  |  |  |  |  |  | change in cytotoxicity with longer exposure time ([1]; 24 vs 72 hours): a decrease in cytotoxicity was observed with longer exposure time; change in cytotoxicity with longer exposure time ([2]; A549, 24 vs 72 hours): a decrease in cytotoxicity was observed with longer exposure time |
